Several values for one entry are separate records, joined by “and”; a condition that tells them apart may be missing. Equal entries are not always repeated. Toxic doses and inconclusive results are not listed.
System: BDF1 mice, P388 leukemia ip, median survival T/C
Experiment: NCI In Vivo Anticancer Drug Screen. Data for tumor model P388 Leukemia (intraperitoneal) in B6D2F1 (BDF1) mice
Settings: endpoint: median survival time, higher = longer survival
In short: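 Compound-treated tumour-bearing mice were compared with vehicle-treated controls. Survival was recorded, and the value is the treated-group measurement divided by the control-group measurement (T/C).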

[1] = dose: 12.5 mg/kg/injection, schedule: Q01DX009 (ip), vehicle: saline
[2] = dose: 50.0 mg/kg/injection, schedule: Q01DX009 (ip), vehicle: saline with Tween-80

Cc1ccc(C(=O)C[S+](C)C)c(C)c1
T/C (dose: 10.46 mg/kg/injection, schedule: Q01DX001 (ip), vehicle: saline): 109 % of control
T/C [1]: 100 % of control
T/C (dose: 20.93 mg/kg/injection, schedule: Q01DX001 (ip), vehicle: saline): 100 % of control
T/C (dose: 25.0 mg/kg/injection, schedule: Q01DX009 (ip), vehicle: saline): 105 % of control
T/C (dose: 41.87 mg/kg/injection, schedule: Q01DX001 (ip), vehicle: saline): 100 % of control
T/C (dose: 50.0 mg/kg/injection, schedule: Q01DX009 (ip), vehicle: saline): 100 % of control
T/C (dose: 56.25 mg/kg/injection, schedule: Q04DX003 (ip), vehicle: saline): 108 % of control
T/C (dose: 75.0 mg/kg/injection, schedule: Q01DX009 (ip), vehicle: saline): 100 % of control
T/C (dose: 112.5 mg/kg/injection, schedule: Q04DX003 (ip), vehicle: saline): 95 % of control

Cc1cc(Cl)ccc1NS(=O)(=O)c1ccc(Br)cc1
T/C (dose: 100.0 mg/kg/injection, schedule: Q04DX003 (ip), vehicle: saline with Tween-80): 90 % of control
T/C (dose: 200.0 mg/kg/injection, schedule: Q04DX003 (ip), vehicle: saline with Tween-80): 90 % of control
T/C (dose: 400.0 mg/kg/injection, schedule: Q04DX003 (ip), vehicle: saline with Tween-80): 95 % of control

CCCCCCCCC[N+]12CC[N+](CCCCCCCCC)(CC1)CC2
T/C (dose: 3.13 mg/kg/injection, schedule: Q01DX009 (ip), vehicle: saline): 101 % of control
T/C (dose: 6.25 mg/kg/injection, schedule: Q01DX009 (ip), vehicle: saline): 97 % of control
T/C [1]: 98 % of control

O=C(O)/C(=C\c1ccncc1)c1cccc2ccccc12
T/C (dose: 50.0 mg/kg/injection, schedule: Q04DX003 (ip), vehicle: Klucel (hydroxypropylcellulose) (HPC)): 100 % of control
T/C (dose: 100.0 mg/kg/injection, schedule: Q04DX003 (ip), vehicle: Klucel (hydroxypropylcellulose) (HPC)): 100 % of control
T/C (dose: 200.0 mg/kg/injection, schedule: Q04DX003 (ip), vehicle: Klucel (hydroxypropylcellulose) (HPC)): 100 % of control

CC(=O)c1cc(C)ccc1Sc1ccc(C)cc1
T/C [2]: 104 % of control
T/C (dose: 100.0 mg/kg/injection, schedule: Q01DX009 (ip), vehicle: saline with Tween-80): 101 % of control
T/C (dose: 200.0 mg/kg/injection, schedule: Q01DX009 (ip), vehicle: saline with Tween-80): 95 % of control

CC(=O)Nc1cc(N(CCOS(C)(=O)=O)CCOS(C)(=O)=O)ccc1N=O
T/C (dose: 0.7 mg/kg/injection, schedule: Q04DX003 (ip), vehicle: saline with Tween-80): 179 % of control
T/C (dose: 1.1 mg/kg/injection, schedule: Q04DX003 (ip), vehicle: saline with Tween-80): 212 % of control
T/C (dose: 1.6 mg/kg/injection, schedule: Q04DX003 (ip), vehicle: saline with Tween-80): 208 % of control
T/C (dose: 1.65 mg/kg/injection, schedule: Q04DX003 (ip), vehicle: saline with Tween-80): 150 % of control and 191 % of control
T/C (dose: 2.5 mg/kg/injection, schedule: Q04DX003 (ip), vehicle: saline with Tween-80): 175 % of control
T/C (dose: 3.75 mg/kg/injection, schedule: Q04DX003 (ip), vehicle: saline with Tween-80): 104 % of control

ClCc1c2ccccc2c(CCl)c2ccccc12
T/C (dose: 0.21 mg/kg/injection, schedule: Q01DX009 (ip), vehicle: saline): 154 % of control
T/C (dose: 0.33 mg/kg/injection, schedule: Q01DX009 (ip), vehicle: saline): 159 % of control and 190 % of control
T/C (dose: 0.49 mg/kg/injection, schedule: Q01DX009 (ip), vehicle: saline): 154 % of control
T/C (dose: 1.3 mg/kg/injection, schedule: Q04DX003 (ip), vehicle: Klucel (hydroxypropylcellulose) (HPC)): 150 % of control
T/C (dose: 1.35 mg/kg/injection, schedule: Q01DX009 (ip), vehicle: saline): 180 % of control
T/C (dose: 1.5 mg/kg/injection, schedule: Q01DX009 (ip), vehicle: Klucel (hydroxypropylcellulose) (HPC)): 153 % of control
T/C (dose: 2.0 mg/kg/injection, schedule: Q04DX003 (ip), vehicle: Klucel (hydroxypropylcellulose) (HPC)): 170 % of control
T/C (dose: 3.0 mg/kg/injection, schedule: Q01DX009 (ip), vehicle: Klucel (hydroxypropylcellulose) (HPC)): 157 % of control and 200 % of control
T/C (dose: 3.0 mg/kg/injection, schedule: Q04DX003 (ip), vehicle: Klucel (hydroxypropylcellulose) (HPC)): 154 % of control and 166 % of control
T/C (dose: 5.0 mg/kg/injection, schedule: Q04DX003 (ip), vehicle: Klucel (hydroxypropylcellulose) (HPC)): 168 % of control
T/C (dose: 6.0 mg/kg/injection, schedule: Q01DX009 (ip), vehicle: Klucel (hydroxypropylcellulose) (HPC)): 105 % of control
T/C (dose: 8.0 mg/kg/injection, schedule: Q04DX003 (ip), vehicle: Klucel (hydroxypropylcellulose) (HPC)): 154 % of control and 172 % of control
T/C (dose: 12.0 mg/kg/injection, schedule: Q04DX003 (ip), vehicle: Klucel (hydroxypropylcellulose) (HPC)): 177 % of control

CCOC(=O)C(C#N)C(C(C)=O)C(=O)OCC (stereo not given)
T/C (dose: 25.0 mg/kg/injection, schedule: Q01DX009 (ip), vehicle: saline with Tween-80): 118 % of control
T/C (dose: 25.0 mg/kg/injection, schedule: Q04DX003 (ip), vehicle: saline sonified): 95 % of control
T/C [2]: 90 % of control
T/C (dose: 50.0 mg/kg/injection, schedule: Q04DX003 (ip), vehicle: saline sonified): 100 % of control
T/C (dose: 100.0 mg/kg/injection, schedule: Q04DX003 (ip), vehicle: saline sonified): 104 % of control
